Assay results published in patent publication US20260125400A1, “TYK2 DEGRADERS AND USES THEREOF” (Kymera Therapeutics, Inc., priority 2023, published 2026).
Where two headings read alike, the source gives them in different places.

Biological target: T1, TYK2 (Homo sapiens, UniProt P29597)
T1 construct: Degradation of TYK2 in cells was quantitatively measured using Meso Scale Discovery (MSD) technology; endogenous in cells; host or cells: OCI-LY10
Assay: TYK2 MSD degradation in OCI-LY10 cells
Type: cell-based
Details: 4 to 24 hours incubation; for DC50: read-out: TYK2 MSD OCI-LY10 Rel-DC50
Outline: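 OCI-LY10 cells were treated with 9-dose 1:3 series (top 1 to 10 μM final) for 4 to 24 hours at 37° C. Lysate TYK2 quantified by MSD sandwich immunoassay; DC50 and Dmax from four-parameter inhibitor vs. response fit.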

[1] = TYK2 degradation in OCI-LY10 cells

T1 sequence (P29597 whole entry): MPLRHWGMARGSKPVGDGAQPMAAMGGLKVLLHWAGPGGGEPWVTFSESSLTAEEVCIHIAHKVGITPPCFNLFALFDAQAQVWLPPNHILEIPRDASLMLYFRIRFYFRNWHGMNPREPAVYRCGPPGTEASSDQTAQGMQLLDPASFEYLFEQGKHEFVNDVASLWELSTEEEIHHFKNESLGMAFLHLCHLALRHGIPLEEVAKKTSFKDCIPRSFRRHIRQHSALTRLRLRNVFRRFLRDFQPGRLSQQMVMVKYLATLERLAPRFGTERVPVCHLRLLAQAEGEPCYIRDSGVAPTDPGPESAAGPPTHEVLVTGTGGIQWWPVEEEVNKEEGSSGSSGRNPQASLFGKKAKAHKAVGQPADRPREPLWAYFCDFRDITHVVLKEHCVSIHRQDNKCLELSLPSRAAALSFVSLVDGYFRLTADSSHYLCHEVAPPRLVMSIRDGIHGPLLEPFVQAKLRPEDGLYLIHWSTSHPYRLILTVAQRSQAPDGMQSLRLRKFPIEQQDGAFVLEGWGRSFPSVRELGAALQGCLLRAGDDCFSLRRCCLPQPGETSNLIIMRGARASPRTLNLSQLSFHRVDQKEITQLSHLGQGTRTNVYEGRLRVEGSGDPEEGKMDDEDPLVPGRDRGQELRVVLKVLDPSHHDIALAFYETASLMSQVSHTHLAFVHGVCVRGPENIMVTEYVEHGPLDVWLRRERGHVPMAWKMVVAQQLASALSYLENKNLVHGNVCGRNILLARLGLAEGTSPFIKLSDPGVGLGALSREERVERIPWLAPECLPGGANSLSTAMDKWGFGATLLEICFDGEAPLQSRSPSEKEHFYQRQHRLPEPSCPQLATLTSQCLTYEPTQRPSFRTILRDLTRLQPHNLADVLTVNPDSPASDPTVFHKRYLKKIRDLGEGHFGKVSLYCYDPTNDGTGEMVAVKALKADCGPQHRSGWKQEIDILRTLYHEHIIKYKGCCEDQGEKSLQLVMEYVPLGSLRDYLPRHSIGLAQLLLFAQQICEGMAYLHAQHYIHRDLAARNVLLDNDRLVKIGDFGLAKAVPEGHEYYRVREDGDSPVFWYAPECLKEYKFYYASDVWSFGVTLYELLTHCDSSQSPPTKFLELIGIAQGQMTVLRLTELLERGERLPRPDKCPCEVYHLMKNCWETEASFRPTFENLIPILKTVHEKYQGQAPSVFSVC

Compound | TYK2 MSD OCI-LY10 Dmax % (OCI-LY10 cells) | DC50 (OCI-LY10 cells) [µM] | TYK2 MSD OCI-LY10 Dmax % [1] | DC50 [1] [µM]
CNc1cc(N2CCc3c(-c4ccc(CN5CC6(CCN(Cc7ccc(OC)c(C8CCC(=O)NC8=O)c7)CC6(F)F)C5)cn4)cccc32)nn2c(C(=O)N[C@@H]3C[C@@H]3F)cnc12 (stereo partly drawn) [I-431] | B (B (90 to >75%)) | < 0.01 | – | –
CNc1cc(N2CCc3c(C4CCN(CC5CC6(CCN(C(=O)c7ccc(Cl)c(N8CCC(=O)NC8=O)c7)CC6)C5)CC4)cccc32)nn2c(C(=O)NC3CC3)cnc12 [I-60] | – | – | C (C (75 to 50%)) | < 0.01
CNc1cc(N2CCc3c(CCN4CCC(N5CCN(C(=O)c6ccc(Cl)c(N7CCC(=O)NC7=O)c6)CC5)C(F)(F)C4)cccc32)nn2c(C(=O)N[C@@H]3C[C@@H]3F)cnc12 (stereo partly drawn) [I-743] | B (B (90 to >75%)) | < 0.01 | – | –
CNc1cc(N2CCc3c(-c4ccc(OC5CC6(CCN(C(=O)c7ccc(Cl)c(N8CCC(=O)NC8=O)c7)CC6)C5)cn4)cccc32)nn2c(C(=O)N[C@@H]3C[C@@H]3F)cnc12 [I-76] | – | – | B (B (90 to >75%)) | < 0.001
CNc1cc(N2CCc3c(-c4ccc(CN5CC6(CCN(C(=O)c7ccc(Cl)c(N8CCC(=O)NC8=O)c7)CC6(F)F)C5)cn4)cc(C)cc32)nn2c(C(=O)N[C@@H]3C[C@@H]3F)cnc12 [I-852] | – | – | B (B (90 to >75%)) | < 0.01
CNc1cc(N2CCc3c(CN4CCC(N5CCN(c6ccc7c(c6)n(C)c(=O)n7C6CCC(=O)NC6=O)CC5)C(F)(F)C4)cccc32)nn2c(C(=O)NC3CC3)cnc12 (stereo not drawn) [I-15] | – | – | C (C (75 to 50%)) | < 0.001
CNc1cc(N2CCc3c(-c4ccc(CN5CCC6(CCN(C(=O)c7cc(C)c(Cl)c(N8CCC(=O)NC8=O)c7)CC6)C(F)(F)C5)cn4)cccc32)nn2c(C(=O)NC3CCC3(F)F)cnc12 (stereo not drawn) [I-996] | – | – | B (B (90 to >75%)) | < 0.01
CNc1cc(N2CCc3c(CN4CC[C@@H](N5CCC6(CC5)CN(C(=O)c5cc(Cl)c(C)c(N7CCC(=O)NC7=O)c5)C6)C(F)(F)C4)cccc32)nn2c(C(=O)N[C@@H]3CC[C@H]3OC)cnc12 [I-1141] | – | – | A (A (>90%)) | < 0.001
CNc1cc(N2CCc3c(N4CCN(C5CCC6(CC5)CCN(C(=O)c5ccc(Cl)c(N7CCC(=O)NC7=O)c5)CC6)CC4)cccc32)nn2c(C(=O)N[C@@H]3C[C@@H]3F)cnc12 [I-284] | – | – | D (D (<50%)) | > 0.1
CNc1cc(N2CCc3c(N4CC(CN5CCC(N6CCC7(CCN(C(=O)c8ccc(Cl)c(N9CCC(=O)NC9=O)c8)CC7)CC6)C(F)(F)C5)C4)cccc32)nn2c(C(=O)N[C@@H]3C[C@@H]3F)cnc12 (stereo partly drawn) [I-785] | B (B (90 to >75%)) | < 0.01 | – | –
CNc1cc(N2CCc3c2cccc3C23CC(CN4CC5(CCN(C(=O)c6ccc(Cl)c(N7CCC(=O)NC7=O)c6)CC5(F)F)C4)(C2)C3)nn2c(C(=O)N[C@@H]3C[C@@H]3F)cnc12 [I-897] | – | – | B (B (90 to >75%)) | < 0.01
CNc1cc(N2CCc3c(CN4CCC(N5CC(CN6CCN(C(=O)c7ccc(Cl)c(N8CCC(=O)NC8=O)c7)CC6)C5)C(F)(F)C4)cccc32)nn2c(C(=O)N[C@@H]3C[C@@H]3F)cnc12 (stereo partly drawn) [I-710] | B (B (90 to >75%)) | < 0.01 | – | –
CNc1cc(N2CCc3c(-c4ccc(CN5CC6(CCN(C(=O)c7ccc(Cl)c(N8CCC(=O)NC8=O)c7)CC6(F)F)C5)cn4)cccc32)nn2c(C(=O)N[C@@H]3C[C@@H]3F)cnc12 [I-67] | – | – | A (A (>90%)) | < 0.001
CNc1cc(N2CCc3c(-c4ccc(CN5CC6(CCN(C(=O)c7ccc(C)c(N8CCC(=O)NC8=O)c7)CC6)C5)cn4)cccc32)nn2c(C(=O)N[C@@H]3C[C@@H]3F)cnc12 [I-63] | – | – | A (A (>90%)) | < 0.001
CNc1cc(N2CCc3c(-c4ccc(N5CCC6(CC5)CN(C(=O)c5ccc(C7CCC(=O)NC7=O)c(Cl)c5)C6)cn4)cccc32)nn2c(C(=O)NC3CC3F)cnc12 (mixture of isomers) [I-447] | C (C (75 to 50%)) | < 0.01 | – | –
CNc1cc(N2CCc3c(-c4ncc(CN5CC6(CCN(C(=O)c7cc(N8CCC(=O)NC8=O)c(OC)cc7C)CC6(F)F)C5)cc4F)cccc32)nn2c(C(=O)N[C@@H]3CC[C@H]3OC)cnc12 [I-1135] | – | – | A (A (>90%)) | < 0.001
COC1(c2cc(C)cc(-c3cn(C4CCN(CC5CCN(C(=O)c6ccc(Cl)c(N7CCC(=O)NC7=O)c6)CC5)CC4)c4cnc(NC(C)=O)cc34)n2)CCOC1 (stereo not drawn) [I-858] | – | – | D (D (<50%)) | > 0.1
COC1(c2cc(C)cc(-c3cn(C4CCN(CC5CCN(c6ccc(NC7CCC(=O)NC7=O)c(F)c6)CC5)CC4)c4cnc(NC(C)=O)cc34)n2)CCOC1 (stereo not drawn) [I-842] | – | – | A (A (>90%)) | < 0.001
CNc1cc(N2CCc3c(N4CCN(C5CCN(C6CCN(C(=O)c7ccc(Cl)c(N8CCC(=O)NC8=O)c7)CC6)CC5)CC4)cccc32)nn2c(C(=O)N[C@@H]3C[C@@H]3F)cnc12 [I-287] | – | – | D (D (<50%)) | > 0.1
CNc1cc(N2CCc3c(CC4CN(C5CCN(C6CCN(C(=O)c7ccc(Cl)c(N8CCC(=O)NC8=O)c7)CC6)CC5(F)F)C4)cccc32)nn2c(C(=O)N[C@@H]3C[C@@H]3F)cnc12 (stereo partly drawn) [I-698] | B (B (90 to >75%)) | < 0.001 | – | –
CNc1cc(N2CCc3c(-c4ccc(CN5CC6(CCC(=Cc7ccc(Cl)c(N8CCC(=O)NC8=O)c7)CC6)C5)cn4)cccc32)nn2c(C(=O)N[C@@H]3C[C@@H]3F)cnc12 [I-884] | – | – | C (C (75 to 50%)) | 0.01 to 0.1
CNc1cc(N2CCc3c(-c4ncc(CN5CCC6(CCN(C(=O)c7cc(C)c(Cl)c(N8CCC(=O)NC8=O)c7)CC6)C(F)(F)C5)cc4C)cccc32)nn2c(C(=O)N[C@@H]3C[C@@H]3F)cnc12 [I-763] | B (B (90 to >75%)) | < 0.01 | – | –
CNc1cc(N2CCc3c(N4CC(CN5CCC(N6CCN(c7ccc8c(c7)n(C)c(=O)n8C7CCC(=O)NC7=O)CC6)C(F)(F)C5)C4)cccc32)nn2c(C(=O)NC3CC3)cnc12 (stereo not drawn) [I-12] | – | – | C (C (75 to 50%)) | < 0.001
CNc1cc(N2CC3(CCN(CCc4ccc5c(c4)n(C)c(=O)n5C4CCC(=O)NC4=O)CC3)c3ccccc32)nn2c(C(=O)NC3CC3)cnc12 (stereo not drawn) [I-53] | – | – | D (D (<50%)) | > 0.1
